Data set [1] is described as follows: Evaluation of solubility and gelling ability (critical gelation concentration, sample tube inversion method). The data set is classed as physicochemical. As for the experimental part:
The amide alcohol and each liquid were heated and mixed, and the critical gelation concentration was measured by sample tube inversion method.
Sample tube used: used tube: Maruemu screw tube No. 7 (trunk diameter 35 mm, total length 78 mm)

Data set [2] is described as follows: Solubility of glycerin with various alcohols.

Structures are written as SMILES. “Also recorded” adds a separate entry of the source.

As for `O=C(CCCO)NC1CCCCC1` [4HN-CHBA, 4-hydroxy-N-cyclohexyl, butyramide], the “solubility and gelling ability” value in data set [1] (Ethanol) is on record as “S”; in data set [1] (Octyldodecyl myristate), “I”; in data set [1] (Squalane), “I”; in data set [1] (Triethylhexanoin) it was “I”; in data set [1] (Water), “S”. Moreover, the “behaviour with glycerin (in words)” value in data set [1] (Glycerin) is reported as “thickened”; in data set [1] (Glycerin, listed as 4HN CHBA), “thickening/gelation”. The concentration for thickening entry is given as “(≥12 wt %)” in data set [1] (Glycerin) and “(≥18 wt %)” in data set [1] (Octyldodecanol). The “behaviour with water (in words)” value in data set [1] (Water) is “solubility in water”.

For the molecule `CCCCC(CC)CNC(=O)CCCO` (centres unmarked) [4HN-EHBA, 4-hydroxy-N-2-ethylhexyl, butyramide], the “solubility and gelling ability” value in data set [1] (Ethanol) was “S”; in data set [1] (Glycerin) it was “S”; in data set [1] (Octyldodecanol) it was “S”; in data set [1] (Octyldodecyl myristate), “S”; in data set [1] (Squalane), “I”; in data set [1] (Triethylhexanoin), “I”. In addition, the “solubility and gelling ability” value in data set [1] (Water) is reported as “I”. In addition, in data set [2], the “solubility with glycerin (in words)” value is given as “can be dissolved”.

`CCCCCCCCCCCCNC(=O)CCCO` [4HN-LBA, 4-hydroxy-N-lauryl, butyramide]: the “solubility and gelling ability” value in data set [1] (Ethanol) is on record as “S”. Moreover, the “behaviour with glycerin (in words)” value in data set [1] (Glycerin) is reported as “gelled”. The “behaviour with water (in words)” value in data set [1] (Water) is given as “emulsification-gelled”. Besides, in data set [1], the “behaviour with ester oil (in words)” value was “gelled”.

`CCCCCCCCCCCCCCNC(=O)CCCO` [4HN-MBA, 4-hydroxy-N-myristyl, butyramide]: the “solubility and gelling ability” value in data set [1] (Ethanol) was “S”; in data set [1] (Glycerin) it was “I”.

Consider `CCCCCCCCNC(=O)CCCO` [4HN-OBA, 4-hydroxy-N-octyl, butyramide], for which the “solubility and gelling ability” value in data set [1] (Ethanol) was “S”; in data set [1] (Octyldodecanol), “S”; in data set [1] (Squalane), “I”; in data set [1] (Water), “S”. Besides, the “behaviour with glycerin (in words)” value in data set [1] (Glycerin) is on record as “gelled; also recorded: thickening/gelation”. For the same molecule, in data set [1] (Water), the “behaviour with water (in words)” value is recorded as “solubility in water”. In addition, the “behaviour with ester oil (in words)” value in data set [1] is recorded as “gelled”.

Turning to `CCCCCCCC/C=C\CCCCCCCCNC(=O)CCCO` [4HN-OLBA, 4-hydroxy-N-oleyl, butyramide], the “solubility and gelling ability” value in data set [1] (Ethanol) is reported as “S”; in data set [1] (Glycerin) it was “I”; in data set [1] (Octyldodecanol), “S”; in data set [1] (Water) it was “I”.

As for `CCCCCCCCCCCCCCCCCCNC(=O)CCCO` [4HN-STBA, 4-hydroxy-N-stearyl, butyramide], the “solubility and gelling ability” value in data set [1] (Ethanol), in data set [1] (Glycerin) and in data set [1] (Water) was “I” each time.

For the molecule `CCCCCCCCCCCCNC(=O)CCCCCO` [6HN-LHA, 6-hydroxy-N-lauryl, hexylamide], the “solubility and gelling ability” value in data set [1] (Ethanol) is listed as “S”; in data set [1] (Glycerin) it was “I”; in data set [1] (Water), “I”.

(Values after US11083677B2, “Cosmetic base including amide alcohol, and cosmetic” (Kokyu Alcohol Kogyo Co., Ltd., priority 2016, dated 2021).)
